# Laboratory results taken from PubChem BioAssay AID1963856 (Molecular Pharmacology Branch, DTP, NCI, 2024).
# Tested on: LG0567-F671-PDC KRAS tumor spheroid viability
# Assay: Anticancer human tumor LG0567-F671-PDC patient-derived lung adenocarcinoma cell line growth inhibition [KRAS2]
# Conditions: spheroids with HUVEC and MSC; for viability, T/C: stronger effect = lower value
# Source text: Multicellular complex tumor spheroid response to RAS pathway inhibitors in combination with a targeted agents in patient-derived cell lines with oncogenic KRAS variants from multiple cancer types
# A high-throughput screen of multi-cell type tumor spheroids was designed to identify active combinations of targeted small molecules and KRAS pathway inhibitors. Complex spheroids include a stromal component modeled by human endothelial cells (HUVEC) and fibroblasts modeled by human mesenchymal stem cells (MSCs). The concentration ranges selected for each drug and investigational agent were based upon clinically achievable concentrations if the clinical Cmax of the agent was known.
# Compounds. The drugs and investigational agents: BI-3406 (NSC825286), BAY-293 (NSC824723), batoprotafib (TNO155; NSC825523), sotorasib (AMG 510; NSC818433), MRTX1257 (NSC819558), elimusertib (BAY 1895344; NSC800525), molibresib (GSK525762; NSC774829), temuterkib (LY3214996; NSC803410), venetoclax (NSC766270), alisertib (NSC759677), olaparib (NSC753686), talazoparib (NSC767125), erdafitinib (NSC781556), ipatasertib (NSC767898), cabozantinib (NSC761068), nintedanib (NSC756659), abemaciclib (NSC768073), docetaxel (NSC628503), trametinib (NSC758246), and sapanisertib (NSC764658) were obtained from the National Cancer Institute (NCI) Developmental Therapeutics Program Chemical Repository. The FDA-approved anticancer drug set is available from the Developmental Therapeutics Program. […] The stock solutions were prepared in dimethyl sulfoxide (DMSO, Sigma-Aldrich, St. Louis, MO, cat. D2650) at 800-fold the tested concentration and stored at -70 degrees C prior to their use. All drugs and investigational agents were tested over a range starting from a high concentration at or near the clinical Cmax and decreasing in half-log increments. If the clinical Cmax for an agent had not been determined, the highest concentration tested was 10 microM.
# Cell Culture. All cells were maintained in an incubator at 37 degrees C and 5% CO2 with 95% humidity. The PDC lines were cultured according to standard operating procedures established by the NCI PDMR (https://pdmr.cancer.gov/sops/default.htm). Briefly, all PDCs were thawed and cultured in Matrigel-coated flasks prepared with a working solution of 1X Ham's F-12 nutrient mix, without supplementation (Invitrogen, Waltham, MA, cat. 11765054), 100 U/mL penicillin-streptomycin (Invitrogen, cat. 15140122), and 2.5% Matrigel (Corning Inc., Corning, NY, cat. 354248) for the first three passages. All PDCs were cultured in complete DMEM/F-12 media containing advanced DMEM/F-12 (Invitrogen, cat. 12634028), 4.9% defined fetal bovine serum, heat inactivated (HyClone Laboratories Inc., Logan, UT, cat. SH30070.03HI), 389 ng/mL hydrocortisone (Sigma-Aldrich, cat. H4001), 9.7 ng/mL human EGF recombinant protein (Invitrogen, cat. PHG0313), 23.4 microg/mL adenine (Sigma-Aldrich, cat. A2786), 97.3 U/mL penicillin-streptomycin (Invitrogen, cat. 15140122), 1.9 mM L-glutamine (Invitrogen, cat. 25030081), and 9.7 microM Y-27632 dihydrochloride (Tocris Bioscience, Bristol, United Kingdom, cat. 1254). The PDCs were cultured in complete DMEM/F12 media without 9.7 microM Y-27632 dihydrochloride for at least two passages prior to the screen. The established cell line HOP-62 was cultured in RPMI 1640 medium, HEPES (Invitrogen, cat. 22400105) with 10% defined fetal bovine serum (HyClone Laboratories Inc., cat. SH30070.03) and 2 mM L-glutamine (Invitrogen, cat. 25030081). The pooled donor HUVEC were cultured in endothelial cell growth medium 2 (PromoCell, Heidelberg, Germany, cat. C-22011) and the hMSC were cultured in mesenchymal stem cell growth medium 2 (PromoCell, cat. C-28009). For all experiments, HUVEC and hMSC were used at passages </=5, while the malignant cell lines were used at passages </=15. […]
# [1] = curve of first compound, second compound 0.1 µM
# [2] = curve of first compound, second compound 0.316 µM
# [3] = curve of first compound, second compound 1 µM
# [4] = curve of first compound, second compound 3.16 µM
# [5] = curve of first compound, second compound 10 µM
# [6] = second compound 0.1 µM, first compound 0.01 µM
# [7] = second compound 0.1 µM, first compound 0.0316 µM
# [8] = second compound 0.1 µM, first compound 0.1 µM
# [9] = second compound 0.316 µM, first compound 0.01 µM
# [10] = second compound 0.316 µM, first compound 0.0316 µM
# [11] = second compound 0.316 µM, first compound 0.1 µM
# [12] = second compound 1 µM, first compound 0.01 µM
# [13] = second compound 1 µM, first compound 0.0316 µM
# [14] = second compound 1 µM, first compound 0.1 µM
# [15] = second compound 3.16 µM, first compound 0.01 µM
# [16] = second compound 3.16 µM, first compound 0.0316 µM
# [17] = second compound 3.16 µM, first compound 0.1 µM
# [18] = second compound 10 µM, first compound 0.01 µM
# [19] = second compound 10 µM, first compound 0.0316 µM
# [20] = second compound 10 µM, first compound 0.1 µM
# 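Further: drug exposure lasted seven days after spheroids formed for three days.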
# 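Wherever viability, T/C is given: 100% = DMSO vehicle control viability.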
Structure (SMILES),IC50 [1] [nM],IC50 [2] [nM],IC50 [3] [nM],IC50 [4] [nM],IC50 [5] [nM],"viability, T/C [6] [%]","viability, T/C [7] [%]","viability, T/C [8] [%]","viability, T/C [9] [%]","viability, T/C [10] [%]","viability, T/C [11] [%]","viability, T/C [12] [%]","viability, T/C [13] [%]","viability, T/C [14] [%]","viability, T/C [15] [%]","viability, T/C [16] [%]","viability, T/C [17] [%]","viability, T/C [18] [%]","viability, T/C [19] [%]","viability, T/C [20] [%]",further results
CNCc1ccccc1-c1csc(C(C)Nc2nc(C)nc3cc(OC)c(OC)cc23)c1 (stereo not drawn),,,,,,,,,,,,,,,,,,,,,"viability, T/C (compound 10 µM): 0.63% [middle of 16 runs]; IC50 (compound alone, run of 07/19/2021): 1.25 µM [middle of 5 runs]; IC50 (compound alone, run of 07/26/2021): 4.92 µM [middle of 6 runs]"
CC(=O)OC12COC1CC(O)C1(C)C(=O)C(O)C3=C(C)C(OC(=O)C(O)C(NC(=O)OC(C)(C)C)c4ccccc4)CC(O)(C(OC(=O)c4ccccc4)C21)C3(C)C (stereo not drawn) + C=CC(=O)N1CCN(c2nc(=O)n(-c3c(C)ccnc3C(C)C)c3nc(-c4c(O)cccc4F)c(F)cc23)C(C)C1,< 10,< 10,< 10,< 10,< 10,13.4,14.2,14.2,13.7,12,12.1,12.6,10.2,10.1,10.7,9.62,9.62,13.7,14,15.6,"viability, T/C (second compound 0.1 µM, first compound 0.316 µM): 14.9%; viability, T/C (second compound 0.1 µM, first compound 1 µM): 18.2%; viability, T/C (second compound 0.1 µM, first compound 3.16 µM): 13.5%; viability, T/C (second compound 0.316 µM, first compound 0.316 µM): 12.3%; viability, T/C (second compound 0.316 µM, first compound 1 µM): 16.3%; viability, T/C (second compound 0.316 µM, first compound 3.16 µM): 12.7%; viability, T/C (second compound 1 µM, first compound 0.316 µM): 12%; viability, T/C (second compound 1 µM, first compound 1 µM): 12.8%; viability, T/C (second compound 1 µM, first compound 3.16 µM): 10.6%; viability, T/C (second compound 3.16 µM, first compound 0.316 µM): 9.52%; viability, T/C (second compound 3.16 µM, first compound 1 µM): 13.2%; viability, T/C (second compound 3.16 µM, first compound 3.16 µM): 10.1%; viability, T/C (second compound 10 µM, first compound 0.316 µM): 14.4%; viability, T/C (second compound 10 µM, first compound 1 µM): 14.5%; viability, T/C (second compound 10 µM, first compound 3.16 µM): 12.1%"
CN(C)C/C=C/C(=O)Nc1cc2c(Nc3ccc(F)c(Cl)c3)ncnc2cc1O[C@H]1CCOC1 + C=CC(=O)N1CCN(c2nc(=O)n(-c3c(C)ccnc3C(C)C)c3nc(-c4c(O)cccc4F)c(F)cc23)C(C)C1,< 0.316,< 0.316,< 0.316,< 0.316,< 0.316,18.4,15.4,26.1,21.6,24.1,28.4,26.2,27.5,24.4,14.5,21.8,22.5,13.1,18.5,13.3,"viability, T/C (second compound 0.1 µM, first compound 0.000316 µM): 32.6%; viability, T/C (second compound 0.1 µM, first compound 0.001 µM): 26.2%; viability, T/C (second compound 0.1 µM, first compound 0.00316 µM): 23.1%; viability, T/C (second compound 0.316 µM, first compound 0.000316 µM): 28.6%; viability, T/C (second compound 0.316 µM, first compound 0.001 µM): 28.2%; viability, T/C (second compound 0.316 µM, first compound 0.00316 µM): 26.1%; viability, T/C (second compound 1 µM, first compound 0.000316 µM): 25.1%; viability, T/C (second compound 1 µM, first compound 0.001 µM): 24.7%; viability, T/C (second compound 1 µM, first compound 0.00316 µM): 24.5%; viability, T/C (second compound 3.16 µM, first compound 0.000316 µM): 18.6%; viability, T/C (second compound 3.16 µM, first compound 0.001 µM): 22.9%; viability, T/C (second compound 3.16 µM, first compound 0.00316 µM): 26.1%; viability, T/C (second compound 10 µM, first compound 0.000316 µM): 23%; viability, T/C (second compound 10 µM, first compound 0.001 µM): 22.9%; viability, T/C (second compound 10 µM, first compound 0.00316 µM): 15.8%"
